Data: PubChem BioAssay (NCI)
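Interpolation was linear, between the two tested concentrations surrounding the appropriate level; five concentrations were tested over 48 hours in 96-well plates. Abbreviation: GI50, concentration required for 50% inhibition of growth. TGI is the concentration that stops growth completely.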

Experiments:
Assay in all cases: NCI anticancer screen, dose series, 48 h
[1] = tested on: NCI-H226 lung
[2] = tested on: HL-60(TB) leukemia
[3] = tested on: SF-268 CNS
[4] = tested on: COLO 205 colon
[5] = tested on: SK-MEL-28 melanoma
[6] = tested on: 786-0 renal
[7] = tested on: A549 NSCLC
[8] = tested on: OVCAR-4 ovarian
[9] = tested on: RPMI-8226 leukemia
[10] = tested on: UACC-62 melanoma

| Structure (SMILES) | TGI [1] [µM] | TGI [2] [µM] | TGI [3] [µM] | TGI [4] [µM] | TGI [5] [µM] | TGI [6] [µM] | TGI [7] [µM] | TGI [8] [µM] | TGI [9] [µM] | TGI [10] [µM] | GI50 [1] [µM] | GI50 [2] [µM] | GI50 [3] [µM] | GI50 [4] [µM] | GI50 [5] [µM] | GI50 [6] [µM] | GI50 [7] [µM] | GI50 [8] [µM] | GI50 [9] [µM] | GI50 [10] [µM] |
| --- | --- | --- | --- | --- | --- | --- | --- | --- | --- | --- | --- | --- | --- | --- | --- | --- | --- | --- | --- | --- |
| O=C(Nc1c(O)[nH]c(=S)[nH]c1=O)c1ccccn1 | > 100 | > 100 | > 100 | > 100 | > 100 | > 100 | > 100 | > 100 | > 100 | > 100 |  |  |  |  |  |  |  |  |  |  |
| CN(C)CC(/C(Cc1ccccc1)=N\NC(=O)C[n+]1ccccc1)c1ccccc1 (stereo not drawn) | > 100 | > 100 | > 100 | > 100 | > 100 | > 100 | > 100 | > 100 |  | > 100 |  |  |  |  |  |  |  |  |  |  |
| Cc1nc2ccc(CN(C)c3ccc(C(=O)N[C@@H](CCC(=O)O)C(=O)O)s3)cc2c(=O)[nH]1 | > 100 | > 100 | > 100 | > 100 | > 100 | > 100 | > 100 | > 100 | > 100 | > 100 |  |  |  |  |  |  |  |  |  |  |
| OCCOc1ccc(-c2cc(-c3ccccn3)nc(-c3ccccn3)c2)cc1 | 4.55 | 0.494 | > 100 | 6.29 | > 100 | 13.9 | > 39.5 | > 100 | > 96.7 | 2.66 |  |  |  |  |  |  |  |  |  |  |
| O=C(O)c1ccccc1Cc1ccco1 | > 100 |  | > 100 | > 100 |  | > 100 | > 100 | > 100 | > 100 | > 100 |  |  |  |  |  |  |  |  |  |  |
| CC1=CC2CC(C)=C(CC[C@]3(C)CC[C@H]([C@@H](C)C(=O)O)OO3)C(C)(C)C2CC1 (stereo partly drawn) | 3.45 | 0.106 | 3.24 | 1.36 | 3.1 | 4.78 | 1.06 | 0.971 |  | 2.81 |  |  |  |  |  |  |  |  |  |  |
| Cn1cc(-c2nonc2-c2c[nH]c3ccccc23)c2ccccc21 | 24.3 | 0.731 | 13.2 | 10.5 | 18.1 | 7.94 | 22.1 | 17 | 5.96 | 5.1 | 1.43 | 0.277 | 0.725 | 0.465 | 1.45 | 0.611 | 0.728 | 1.52 | 0.369 | 0.341 |
| COc1cc(C(=O)OCCCCCCCCCCC[P+](c2ccccc2)(c2ccccc2)c2ccccc2)ccc1O |  | 0.734 |  | 3.06 |  | 2.38 |  |  | 0.942 | 2.44 |  | 0.282 |  | 1.49 |  | 1.06 |  |  | 0.2 | 0.768 |
| N=C(c1ccccc1)N(c1ccccc1)c1ccccc1 | > 100 | > 100 | > 100 | > 100 | > 100 | > 100 | > 100 | > 100 |  |  |  |  |  |  |  |  |  |  |  |  |
| N#Cc1cccc(N2C(=O)c3c(c(-c4ccccc4)c(-c4ccc(Sc5ccc(-c6c(-c7ccccc7)c7c(c(-c8ccccc8)c6-c6ccccc6)C(=O)N(c6cccc(C#N)c6)C7=O)cc5)cc4)c(-c4ccccc4)c3-c3ccccc3)C2=O)c1 |  | > 100 | > 100 | > 100 | > 100 | > 100 | > 100 | > 100 | > 100 | > 100 |  |  |  |  |  |  |  |  |  |  |
| C1=C(c2ccccc2)CN(c2ccccc2)OC1 | > 100 | > 100 | > 100 | > 100 | > 100 | > 100 | > 100 |  | > 100 | > 100 |  |  |  |  |  |  |  |  |  |  |
| Nc1ncnc2c1ncn2C1OC(COP(=O)(O)CP(=O)(O)O)C(O)C1O (stereo not drawn) | > 100 | > 100 | > 100 | > 100 | > 100 | > 100 | > 100 |  | > 100 | > 100 |  |  |  |  |  |  |  |  |  |  |
| COc1cc(-c2nn3c(/C=C4/C(=O)Nc5ccccc54)c(-c4ccc(C)cc4)nc3s2)cc(OC)c1OC | 59.9 | > 100 | > 100 |  |  | 21.4 | > 100 |  |  | > 100 | 22.5 | > 100 | 3.62 |  |  | 5.8 | 2.12 |  |  | 5.47 |
| Cc1cccc(C(=O)c2cccc3ccccc23)c1C(=O)O | > 100 |  | > 100 | 80 | > 100 | > 100 | > 100 | > 100 | > 100 | > 100 |  |  |  |  |  |  |  |  |  |  |
| COc1ccc(S(=O)(=O)NC(C)C(=O)O)cc1 (stereo not drawn) |  | > 100 | > 100 | > 100 | > 100 | > 100 | > 100 | > 100 | > 100 | > 100 |  |  |  |  |  |  |  |  |  |  |
| O=C1OC(=O)c2c1c(-c1ccccc1)cn2-c1ccc(Cl)cc1 | > 100 | > 100 | > 100 | 37.5 | > 100 | > 100 | > 100 |  | > 100 |  |  |  |  |  |  |  |  |  |  |  |
| C#CCC[C@@H]1O[C@@]1(C)CC/C=C(\C)CC/C=C/C=O | > 100 | 60.8 | 56.3 | > 100 |  | > 100 | > 100 |  | 56.4 | 36.6 |  |  |  |  |  |  |  |  |  |  |
| CC1=CCC[C@@]2(C)C(CC[C@@H]2C(C)/C=C/C(C)C)c2ccc(cc2C(=O)O)C[C@@H](O)CC1 (stereo partly drawn) | 32.7 | 31.2 | 29.7 |  | 28.4 | 27.9 | 20.3 | 25.6 | 19.7 | 23 |  |  |  |  |  |  |  |  |  |  |
| O=C(Nc1ccc(Cl)cc1Cl)c1ccc(NC2=C(Cl)C(=O)N(Cc3ccccc3)C2=O)cc1 | 45.8 | 9.01 | 36.6 | 38.8 |  | > 100 | 66.1 |  | 9.04 | 35.3 | 20.5 | 2.5 | 16.5 | 16.3 |  | 21.6 | 25.9 |  | 2.84 | 18.6 |
| COc1cccc([C@H]2CC(=O)c3cc4c(cc3N2)OCO4)c1 | > 100 |  | > 100 | 1.22 | > 100 | > 100 | > 100 | > 100 | 1.01 | 0.0965 | 0.226 |  | 4.7 | 0.0367 |  | 0.0789 | 0.125 |  | 0.0608 | 0.0226 |
